The numbers were not newly measured in patent publication US20040053963A1, “Urotensin-II receptor antagonists” (priority 2003, published 2004), which cites them from elsewhere.

This data set concerns rat-isolated aorta. Particulars: Ames et. al. Nature 1999, 401, 282.

Structures are written as SMILES.

With `CC(C)[C@H](NC(=O)[C@@H]1CSSC[C@H](NC(=O)[C@H](CC(=O)O)NC(=O)[C@@H]2CCCN2C(=O)[C@@H](NC(=O)[C@@H](N)CCC(=O)O)[C@@H](C)O)C(=O)N[C@@H](Cc2ccccc2)C(=O)N[C@@H](Cc2c[nH]c3ccccc23)C(=O)N[C@@H](CCCCN)C(=O)N[C@@H](Cc2ccc(O)cc2)C(=O)N1)C(=O)O` [Human Urotensin-II], the contractile activity result is given as “most potent contractile agonist identified to date”.
